Legend:
Format in all cases: cell-based
[1] = tested on: SK-BR-3 cells (HER2 overexpressing cell line); assay: SK-BR-3 cell proliferation inhibitory activity (CellTiter-Glo, 120 hours); conditions: Homo sapiens
In short: (§1)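 Three independent repeats measured growth inhibition across 11 concentrations. The top final concentration was 10 μM for SK-BR-3 and BT-474, 5 μM for N-87 and 45 μM for HaCaT. Growth relative to control, read by luminescence, yielded GI50.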

[2] = tested on: BT-474 cells (HER2 overexpressing cell line); assay: BT-474 cell proliferation inhibitory activity (CellTiter-Glo, 120 hours); conditions: Homo sapiens
In short: as §1

[3] = tested on: N-87 cells (HER2 overexpressing cell line); assay: N-87 cell proliferation inhibitory activity (CellTiter-Glo, 72 hours)
Protocol: To evaluate the cell proliferation inhibitory activity of the compound according to the present invention on HER2 and EGFR kinases, the following method was performed using HER2 overexpressing cell lines (SK-BR-3, BT-474, and N-87) and EGFR expressing cell line (HaCaT).
McCOY'S 5A supplemented with 10% FBS was used for SK-BR-3 cells, RPMI-1640 medium supplemented with 20% FBS was used for BT-474 cancer cells, and RPMI-1640 medium supplemented with 10% FBS was used for N-87 cancer cells. DMEM supplemented with 10% FBS was used for HaCaT cells.
For SK-BR-3 cells, 5000 cells were aliquoted into each well of a white clear bottom 96 well plate (Corning) 48 hours before treatment with the compounds of Examples. For BT-474 cells, 5000 cells were aliquoted into each well of a white clear bottom 96 well plate (Corning) 48 hours before treatment with the compounds of Examples. For N-87 cells, 5000 cells were aliquoted into each well of a white clear bottom 96 well plate (Corning) 24 hours before treatment with the compounds of Examples. For HaCaT cells, 3000 cells were aliquoted into each well of a white clear bottom 96 well plate (Corning) 24 hours before treatment with the compounds of Examples. For SK-BR-3 cells and BT-474 cells, the compounds of Examples were diluted in dimethyl sulfoxide (three-fold dilution, a total of 11 concentrations) and injected each in an amount of 1 μl to a final concentration of 0.2 nM to 10 μM. For N-87 cells, the compounds of Examples were diluted in dimethyl sulfoxide (five-fold dilution, a total of 11 concentrations) and injected each in an amount of 0.5 μl to a final concentration of […] to 5 μM. For HaCaT cells, the compounds of Examples were diluted in dimethyl sulfoxide (three-fold dilution, a total of 11 concentrations) and injected each in an amount of 0.5 μl to a final concentration of 0.8 nM to 45 μM. For the measurement of living cells, the cells were stored at room temperature for 10 minutes using CellTiter-Glo cell viability reagent (Promega) after a certain period of time (SK-BR-3: 120 hours, BT-474: 120 hours, N-87: 72 hours, and HaCaT: 72 hours) post treatment with the compounds of Examples, and the luminescence intensity thereof was measured using a reader (SynergyNeo, Biotek). Each test was repeated three times.
The result values were calculated as a cell growth rate (%) compared to those of the control group. A graph was created using the GraphPad Prism version 5.0 program, and GI50 values were calculated.

[4] = tested on: HaCaT cells (EGFR expressing cell line); assay: HaCaT cell proliferation inhibitory activity (CellTiter-Glo, 72 hours); conditions: Homo sapiens
In short: as §1

SMILES | GI50 [1] | GI50 [2] | GI50 [3] | GI50 [4]
C=CC(=O)N1CC[C@@H](Oc2cc3c(Nc4cc(-c5ccc(F)cc5F)ccc4OC)ncnc3cc2OC)[C@H](F)C1 (relative stereo) [Example 171, 1-(trans-4-((4-((2′,4′-difluoro-4-methoxy-[1,1′-biphenyl]-3-yl)amino)-7-methoxy-quinazolin-6-yl)oxy)-3-fluoropiperidin-1-yl)prop-2-en-1-one] | ≤ 150 nM | ≤ 150 nM | ≤ 150 nM | ≤ 150 nM
C=CC(=O)N1CC[C@H](Oc2cc3c(Nc4cc(-c5ccco5)ccc4OC)ncnc3cc2OC)[C@H](F)C1 (relative stereo) [Example 181, 1-(cis-3-fluoro-4-((4-((5-(furan-2-yl)-2-methoxyphenyl)amino)-7-methoxy-quinazolin-6-yl)oxy)piperidin-1-yl)prop-2-en-1-one] | ≤ 150 nM | ≤ 150 nM | ≤ 150 nM | ≤ 150 nM
C=CC(=O)N1CC[C@H](Oc2cc3c(Nc4cc(-c5ccc(F)cc5F)ccc4OC)ncnc3cc2OC)[C@H](F)C1 (relative stereo) [Example 182, 1-(cis-4-((4-((2′,4′-difluoro-4-methoxy-[1,1′-biphenyl]-3-yl)amino)-7-methoxy-quinazolin-6-yl)oxy)-3-fluoropiperidin-1-yl)prop-2-en-1-one] | ≤ 150 nM | ≤ 150 nM | ≤ 150 nM | ≤ 150 nM
C=CC(=O)N1CC(Oc2cc3c(Nc4cc(-c5cccc(C(F)(F)F)c5F)ccc4OC)ncnc3cc2OC)C1 [Example 17, 1-(3-((4-((2′-fluoro-4-methoxy-3′-(trifluoromethyl)-[1,1′-biphenyl]-3-yl)amino)-7-methoxy-quinazolin-6-yl)oxy)azetidin-1-yl)prop-2-en-1-one] | ≤ 150 nM | ≤ 150 nM | ≤ 150 nM | 150 to 1000 nM
C=CC(=O)N1CC(Oc2cc3c(Nc4cc(-c5cccc(C#N)c5F)ccc4OC)ncnc3cc2OC)C1 [Example 21, 3'-((6-((1-acryloylazetidin-3-yl)oxy)-7-methoxy-quinazolin-4-yl)amino)-2-fluoro-4′-methoxy-[1,1′-biphenyl]-3-carbonitrile] | ≤ 150 nM | ≤ 150 nM | ≤ 150 nM | ≤ 150 nM
C=CC(=O)N1CC(Oc2cc3c(Nc4cc(-c5ccc(F)nc5)ccc4OC)ncnc3cc2OC)C1 [Example 22, 1-(3-( (4-((5-(6-fluoropyridin-3-yl)-2-methoxyphenyl)amino)-7-methoxy-quinazolin-6-yl)oxy)azetidin-1-yl)prop-2-en-1-one] | ≤ 150 nM | ≤ 150 nM | ≤ 150 nM | ≤ 150 nM
C=CC(=O)N1CC(Oc2cc3c(Nc4cc(-c5ccccc5F)ccc4OC)ncnc3cc2OC)C1 [Example 24, 1-(3-((4-((2′-fluoro-4-methoxy-[1,1′-biphenyl]-3-yl)amino)-7-methoxy-quinazolin-6-yl)oxy)azetidin-1-yl)prop-2-en-1-one] | ≤ 150 nM | ≤ 150 nM | ≤ 150 nM | ≤ 150 nM
C=CC(=O)N1CCC(Oc2cc3c(Nc4cc(-c5ccc(F)cc5)ccc4OC)ncnc3cc2OC)CC1 [Example 67, 1-(4-((4-((4′-fluoro-4-methoxy-[1,1′-biphenyl]-3-yl)amino)-7-methoxy-quinazolin-6-yl)oxy)piperidin-1-yl)prop-2-en-1-one] | ≤ 150 nM | ≤ 150 nM | ≤ 150 nM | 150 to 1000 nM
C=CC(=O)N1CCC(Oc2cc3c(Nc4cc(-c5ccsc5)ccc4OC)ncnc3cc2OC)CC1 [Example 79, 1-(4-((7-methoxy-4-((2-methoxy-5-(thiophen-3-yl)phenyl)amino)quinazolin-6-yl)oxy)piperidin-1-yl)prop-2-en-1-one] | ≤ 150 nM | ≤ 150 nM | ≤ 150 nM | ≤ 150 nM
C=CC(=O)N1CCC(F)(F)C(Oc2cc3c(Nc4cc(-c5ccco5)ccc4OC)ncnc3cc2OC)C1 (stereo not shown) [Example 113, 1-(4,4-difluoro-3-((4-((5-(furan-2-yl)-2-methoxyphenyl)amino)-7-methoxy-quinazolin-6-yl)oxy)piperidin-1-yl)prop-2-en-1-one] | ≤ 150 nM | ≤ 150 nM | ≤ 150 nM | ≤ 150 nM
C=CC(=O)N1CCC(Oc2cc3c(Nc4cc(-c5c(F)cc(F)cc5F)ccc4OC)ncnc3cc2OC)CC1 [Example 190, 1-(4-((7-methoxy-4-((2′,4′,6′-trifluoro-4-methoxy-[1,1′-biphenyl]-3-yl)amino)quinazolin-6-yl)oxy)piperidin-1-yl)prop-2-en-1-one] |  | ≤ 150 nM | ≤ 150 nM | ≤ 150 nM
C=CC(=O)N1CCC(Oc2cc3c(Nc4cc(-c5ccc(F)cc5Cl)ccc4OC)ncnc3cc2OC)CC1 [Example 191, 1-(4-((4-((2′-chloro-4′-fluoro-4-methoxy-[1,1′-biphenyl]-3-yl)amino)-7-methoxy-quinazolin-6-yl)oxy)piperidin-1-yl)prop-2-en-1-one] |  | ≤ 150 nM | ≤ 150 nM | ≤ 150 nM
C=CC(=O)N1CCC(Oc2cc3c(Nc4cc(-c5cc(C(F)(F)F)ccc5F)ccc4OC)ncnc3cc2OC)CC1 [Example 192, 1-(4-((4-((2′-fluoro-4-methoxy-5′-(trifluoromethyl)-[1,1′-biphenyl]-3-yl)amino)-7-methoxy-quinazolin-6-yl)oxy)piperidin-1-yl)prop-2-en-1-one] |  | ≤ 150 nM | ≤ 150 nM | ≤ 150 nM
C=CC(=O)N1CCC(Oc2cc3c(Nc4cc(-c5cccc(C=C)c5)ccc4OC)ncnc3cc2OC)CC1 [Example 215, 1-(4-((7-methoxy-4-((4-methoxy-3′-vinyl-[1,1′-biphenyl]-3-yl)amino)quinazolin-6-yl)oxy)piperidin-1-yl)prop-2-en-1-one] |  | ≤ 150 nM | ≤ 150 nM | 150 to 1000 nM
C=CC(=O)N1CCC(Oc2cc3c(Nc4cc(-c5cccc(NC(C)=O)c5)ccc4OC)ncnc3cc2OC)CC1 [Example 224, N-(3′-((6-((1-acryloyl-piperidin-4-yl)oxy)-7-methoxy-quinazolin-4-yl)amino)-4′-methoxy-[1,1′-biphenyl]-3-yl)acetamide] |  | ≤ 150 nM | ≤ 150 nM | ≤ 150 nM
C=CC(=O)N1CCC(Oc2cc3c(Nc4cc(-c5cccc(N6CCC6)c5)ccc4OC)ncnc3cc2OC)CC1 [Example 225, 1-(4-((4-((3′-(azetidin-1-yl)-4-methoxy-[1,1′-biphenyl]-3-yl)amino)-7-methoxy-quinazolin-6-yl)oxy)piperidin-1-yl)prop-2-en-1-one] |  | 150 to 1000 nM | ≤ 150 nM | > 1000 nM
C=CC(=O)N1CCC(Oc2cc3c(Nc4cc(-c5ccc(F)c(NC(C)=O)c5)ccc4OC)ncnc3cc2OC)CC1 [Example 226, N-(3′-((6-((1-acryloyl-piperidin-4-yl)oxy)-7-methoxy-quinazolin-4-yl)mino)-4-fluoro-4′-methoxy-[1,1'-biphenyl]-3-yl)acetamide] |  | ≤ 150 nM | ≤ 150 nM | > 1000 nM
C=CC(=O)N1CCC(Oc2cc3c(Nc4cc(-c5ccc(F)c(N(C)C)c5)ccc4OC)ncnc3cc2OC)CC1 [Example 229, 1-(4-((4-((3′-(dimethylamino)-4′-fluoro-4-methoxy-[1,1′-biphenyl]-3-yl)amino)-7-methoxy-quinazolin-6-yl)oxy)piperidin-1-yl)prop-2-en-1-one] |  | ≤ 150 nM | ≤ 150 nM | 150 to 1000 nM
C=CC(=O)N1CCC(Nc2cc3c(Nc4cc(-c5ccc(F)cc5F)ccc4OC)ncnc3cc2OCC)CC1 [Example 301, 1-(4-((4-((2′,4′-difluoro-4-methoxy-[1,1′-biphenyl]-3-yl)amino)-7-ethoxyquinazolin-6-yl)amino)piperidin-1-yl)prop-2-en-1-one] |  | ≤ 150 nM | ≤ 150 nM | ≤ 150 nM
